Measured values taken from patent US6787359B1, “Gene transfer methods” (Takara Shuzo Co., Ltd., priority 1998, dated 2004).

Assays:
HL-60 cells = format: cell-based, human; conditions: no washing
Method: (§1) Recombinant retrovirus-producer cells obtained by introducing a retrovirus vector plasmid pLEIN into φCRIP cells were cultured in DMEM containing 10% CS. When the cells grew to semi-confluence in a 10-cm plate, the medium was changed to 7 ml of RPMI 1640 containing 10% FCS or 7 ml of RPMI 1640 containing 5 mM sodium butyrate (Nacalai Tesque) and 10% FCS. After the cells were cultured for 24 hours, supernatants were filtered through 0.45 μm filters to obtain virus supernatants. The titer of the virus supernatant was determined as described in Example 2. The titer of the virus supernatant without sodium butyrate was 3.3×10^4 cfu/ml, whereas the titer of the virus supernatant containing 5 mM sodium butyrate was 2×10^6 cfu/ml.
HL-60 cells were used as target cells. 0.5 ml of the above-mentioned virus supernatant was added to each well of a plate coated with CH-296 as described in Example 12. The plate was incubated at 37° C. for 3 hours for contacting and binding the virus particles with CH-296. After incubation, the plate was […]. 0.5 ml of RPMI 1640 medium supplemented with 10% FCS containing 5×10^4 HL-60 cells was added to the well. As a control, 5×10^4 HL-60 cells were suspended in 0.5 ml of the above-mentioned virus supernatant and then immediately added to the plate coated with CH-296. These plates were incubated at 37° C. overnight to allow the virus to infect cells. After the incubation, 1 ml of RPMI 1640 medium containing 10% FCS was added to the well. The plate was incubated for additional 48 hours. The cell number was then counted.

NIH/3T3 cells = assay: Titer of virus supernatant of producer cells cultured with sodium butyrate; format: cell-based; conditions: φCRIP/pLEIN producer cells cultured 24 hours with 5 mM sodium butyrate; without: 3.3×10^4 cfu/ml
Method: The titer of the virus supernatant was measured according to a standard method [J. Virol., 62:1120-1124 (1988)] in which the efficiency of transferring a neomycin phosphotransferase gene into NIH/3T3 cells (ATCC CRL-1658) is used as an index. The number of infectious particles contained in 1 ml of the supernatant (cfu/ml) was calculated. The amount of the virus supernatant to be added in the experiments hereinbelow was determined based on the calculated value, i.e., the titer of the supernatant.
as §1

L1210 cells [1] = assay: Eco-EGFP gene transfer on plates with covalently immobilized CH-271 and (Mannose)9-(GlucNAc)2-Asn; format: cell-based, mouse; conditions: wells with sugar chain and CH-271 immobilized
Method: A microplate to which CH-271 and (Mannose)9-(GlucNAc)2-Asn were immobilized through covalent bonds was prepared. […] 50 μl each of solutions containing 2% BSA or 80 μg/ml of CH-271 as well as (Mannose)9-(GlucNAc)2-Asn at a varying concentration was added to each well of the activated 96-well Carboplate. The plate was subjected to immobilization reaction at 37° C. for 2 hours. The plate was blocked using 0.2% glycine solution at 4° C. for 15 hours and then used for the following gene transfer experiments.
10^3 L1210 cells and 0.1 ml Eco-EGFP virus supernatant (10^6 cfu/ml) were added to the well of the microplate. After the plate was incubated for 48 hours, 0.1 ml of fresh RPMI 1640 medium containing FCS, penicillin and streptomycin was added to the well. The plate was incubated for additional 24 hours. The cells were collected and washed. The gene transfer efficiency was calculated as described in Example 4.

[2] = test system: mouse leukemia L1210 cells; assay: Gene transfer with PM5neo virus on coated plates, G418-resistant cells by WST-1 absorbance; format: cell-based; conditions: for Absorbance difference (450 nm-650 nm), G418-resistant cells: Experiment 2
Method: 50 μl of […] solution of H-271, H-296, C-274, CH-271, CH-296, ColV, human basic fibroblast growth factor (bFGF; Progen), tenascin (Gibco) or epidermal growth factor (EGF; Takara Shuzo), or 50 μl of 2% bovine serum albumin (BSA, Sigma) was added to each well of a 96-well non-treated microplate for cell culture (Falcon). The plate was allowed to stand at 4° C. overnight and then washed twice with phosphate buffered saline (PBS; Roman Kogyo). Alternatively, after the plate was treated as described above, 0.1 ml of 4 mg/ml solution of 1-ethyl-3-dimethylaminopropylcarbodiimide hydrochloride (Sigma) in sterile pure water was dispensed to each well. The reaction was allowed to proceed at 37° C. for 2 hours. The plate was washed extensively with pure water to prepare a carbodiimide-treated plate. These plates were stored at 4° C. until viral infection experiments were conducted.
10^4 mouse leukemia L1210 cells (ATCC CCL-219), which had been grown in RPMI 1640 medium (Bio Whittaker) supplemented with 10% FCS, 50 units/ml penicillin and 50 μg/ml streptomycin, and 50 μl of PM5neo virus supernatant (10^4 cfu/ml) were added to the well of the microplate. After the plate was incubated for 24 hours, the medium was changed to the same medium containing G418 (Gibco) at a final concentration of 0.75 mg/ml, and the plate was then incubated for additional 48 hours. G418-resistance cells were assessed according to the method as described in S. Kim et al. [Gene Therapy, 3:1018-1020 (1996)] with a partial modification in which color developed using Premix WST-1 reagent (Takara Shuzo) was measured as absorbance at 450 nm. […] Absorbance at 450 nm and 650 nm was then measured using a microplate reader, and the difference (450 nm-650 nm) was calculated. The value obtained using a plate coated with 2% BSA without carbodiimide treatment was defined as background.

[3] = test system: mouse leukemia L1210 cells; assay: Effect of sugar chain-cleaving enzymes on CH-271/laminin plates, PM5neo gene transfer, G418-resistant cells; format: cell-based
Method: A 96-well microplate was coated using 50 μl/well of a mixture containing 5 μg/ml of mouse laminin and 80 μg/ml of CH-271 as described in Example 5. Effects of treatment of the plate with various enzymes having activities of cleaving sugar chains on gene transfer efficiency were examined.
Plates were treated with enzymes as follows: Enzyme solutions containing 500 mU/ml O-glycanase (endo-α-N-acetylgalactosaminidase, Seikagaku Corp.), 500 mU/ml endoglycosidase H (endo-β-N-acetylglucosaminidase H, Seikagaku Corp.), 250 mU/ml endo-β-galactosidase (Seikagaku Corp.) and 2 mU/ml α-mannosidase (Seikagaku Corp.) in 50 mM citrate-phosphate buffer (pH 5.0) were prepared. An enzyme solution containing 250 mU/ml glycopeptidase F (peptide: N-glycosidase F, Takara Shuzo) in 100 mM tris-hydrochloride buffer (pH 8.6) was prepared. 50 μl each of the enzyme solutions was dispensed in each well for reacting at 37° C. for 20 hours. The plate was then washed three times with PBS and then used for viral infection experiments. 10^4 mouse leukemia L1210 cells grown in RPMI 1640 medium supplemented with 10% FCS, 50 units/ml penicillin and […], and 50 μl of PM5neo virus supernatant (10^4 cfu/ml) were added to each well of the microplate. The plate was incubated for 24 hours. […] G418-resistance cells were assessed as described in Example 3.

L1210 cells [4] = assay: Eco-EGFP gene transfer with laminin and virus-binding substance, flow cytometry; format: cell-based, mouse; conditions: no CH-296/CH-271
Method: Mouse laminin (Gibco) or human laminin (Takara Shuzo) was used in combination with a functional substance having an activity of binding to a virus to carry out gene transfer experiment. A 24-well non-treated microplate for cell culture (Falcon) used in the experiment was coated with these functional substances according to the following two methods.
The cocktail method: A mixture of two functional substances is added to the plate. The plate is allowed to stand at 4° C. overnight. The plate is blocked with 2% BSA at 37° C. for 20 minutes and then washed with PBS.
The pre-coating method: A solution of a functional substance having an activity of binding to a virus is added to the plate. The plate is allowed to stand at 4° C. overnight. The solution is removed. A laminin solution is added to the plate. The plate is incubated at 37° C. for 2 hours, blocked with 2% BSA, and then washed with PBS.
0.5 ml of the solution of the functional substance was used to coat each well. 10^5 L1210 cells and 0.5 ml of Eco-EGFP virus supernatant (10^5 cfu/ml) were added to the well. The plate was incubated for 24 hours. After incubation, the cells were collected by using a cell detachment buffer (Bio Whittaker) and washed. EGFP-expressing cells were analyzed by flow cytometry using FACSVantage (Becton Dickinson) at an excitation wavelength of 488 nm and an emission wavelength of 515-545 nm. The gene transfer efficiency (the ratio of EGFP-expressing cells to total cells) was calculated.

[5] = Control: cells suspended in supernatant with sodium butyrate, added to CH-296 plate
[6] = plate treated with carbodiimide

## CCCC(=O)[O-].[Na+] [sodium butyrate]
HL-60 cells; [5]
  Cell number (cells/plate): 4.0 x 10^5 cells/plate
  Gene transfer efficiency (%): 35.46%
HL-60 cells; control group
  Viable cell number relative to supernatant without sodium butyrate: one fourth
NIH/3T3 cells
  Titer of the virus supernatant: 2×10^6 cfu/ml

## (Mannose)9-(GlucNAc)2-Asn
L1210 cells [1]
  Gene transfer efficiency (in words): increased depending on the concentration of sugar chain used

## Tenascin: tenascin (Gibco)
[2]; [6]
  Absorbance difference (450 nm-650 nm), G418-resistant cells: 0.323 ± 0.037
[2]; plate untreated
  Absorbance difference (450 nm-650 nm), G418-resistant cells: 0.060 ± 0.021
[2]; carbodiimide treatment carried out
  Appearance of G418-resistant cells (in words): increased

## bFGF: human basic fibroblast growth factor (Progen)
[2]; [6]
  Absorbance difference (450 nm-650 nm), G418-resistant cells: 0.580 ± 0.046
[2]; plate untreated
  Absorbance difference (450 nm-650 nm), G418-resistant cells: 0.425 ± 0.014
[2]; known virus-binding substances, Table 1
  Gene transfer efficiency (in words): increase in gene transfer efficiency was observed

## laminin
[3]; treatment of the plate with endoglycosidase H
  Gene transfer-promoting effect of laminin after enzyme treatment (in words): completely abolished
[3]; treatment of the plate with α-mannosidase or glycopeptidase F
  Gene transfer efficiency after enzyme treatment (in words): decreased the gene transfer efficiency in some degree
L1210 cells [4]; laminin 5 μg/ml alone
  Gene transfer efficiency: 4.09%
L1210 cells [4]; laminin 10 μg/ml alone
  Gene transfer efficiency: 6.76%
L1210 cells [4]; laminin 20 μg/ml alone
  Gene transfer efficiency: 6.89%
